According to patent US20250194596A1 (priority 2023, published 2025):
Where a name gives a salt, the structure may show the parent alone. Read-outs that look alike come from different tables or passages of the source.

Experiments:
CLas [1] = type: in vivo, Candidatus Liberibacter asianticum
CLas [2] = type: in vivo, Candidatus Liberibacter asianticum; settings: injection into the tree trunks for one week
[3] = type: physicochemical; settings: 10 mg/mL in water
[4] = on human beings and animals; cited from earlier work

CC1(C)S[C@@H]2[C@H](NC(=O)[C@H](N)c3ccccc3)C(=O)N2[C@H]1C(=O)O [ampicillin, reference compound]
CLas content reduced (CLas [1]; 12 mg/mL, mesophyll injection, 3 d): more than 80%

O=C(/C=C/c1ccc(O)c(O)c1)O[C@@H]1C[C@](O)(C(=O)O)C[C@@H](O)[C@H]1O [chlorogenic acid]
CLas content reduced (CLas [1]; 0.5 mg/mL chlorogenic acid, mesophyll injection, 3 d): more than 60%
inhibitory effect on CLas (CLas [1]; 10 mg/mL, mesophyll injection, 3 d): equivalent to that of 5 mg/mL
antibacterial effect on CLas (CLas [1]; concentrations below 0.5 mg/mL, mesophyll injection, 3 d): not obvious
concentration achieving a significant inhibitory effect on CLas (CLas [1]; in vivo): not less than 5 mg/mL
reduction of CLas content (CLas [1]; injection into the mesophyll for 3 days): about 60%
minimum inhibitory concentration (MIC) of chlorogenic acid for CLas (CLas [1]; mesophyll injection of HLB-infected leaves, CLas content after 3 d): 500 µg/mL
reduction of CLas content (CLas [2]): about 60%
appearance of solution [3]: turbid

CN(C)[C@@H]1C(O)=C(C(N)=O)C(=O)[C@@]2(O)C(O)=C3C(=O)c4c(O)cccc4[C@@](C)(O)[C@H]3[C@H](O)[C@@H]12 [oxytetracycline hydrochloride, reference compound]
reduction of CLas content (CLas [1]; 20 mg/mL, mesophyll injection, 3 d): about 20%

rhamnolipid
toxic or side effects [4]: no toxic or side effects
